Data: patent publication US20220081412A1, “QUINOLINYL-PYRAZINE-CARBOXAMIDE COMPOUNDS AND USES THEREOF” (The Regents of the University of Michigan, priority 2018, published 2022)

Tested on: NCI60 cell lines
Test: NCI60 cell line panel
Format: cell-based, human
Procedure: The Developmental Therapeutics Program (DTP) of NCI has evaluated more than 100,000 pure compounds and more than 34,000 crude extracts against the panel of human tumor cell lines. The resultant data are analyzed using a program called COMPARE, that rank the entire database of tested compounds in the order of the similarity of the responses. […] Thus, the NCI60 databases is highly useful to the cancer research community. Further experiments were conducted that tested some of the active compounds in a panel of NCI60 cell line to relate our compounds with some known inhibitors to have an idea of possible mechanism of action.
In order to understand the selectivity of these compounds in different cancer types, some of them were tested against a panel of 60 cell lines (Table XXXIX).

[1] = Non-Small Cell Lung Cancer, A549/ATCC
[2] = Non-Small Cell Lung Cancer, EKVX
[3] = Non-Small Cell Lung Cancer, HOP-62
[4] = Non-Small Cell Lung Cancer, HOP-92
[5] = Non-Small Cell Lung Cancer, NCI-H23
[6] = Non-Small Cell Lung Cancer, NCI-H226
[7] = Non-Small Cell Lung Cancer, NCI-H322M
[8] = Non-Small Cell Lung Cancer, NCI-H460
[9] = Non-Small Cell Lung Cancer, NCI-H522

`O=C(Nc1cc(F)cc2cccnc12)c1cnc(N2CCNCC2)cn1` [J44, N-(6-fluoroquinolin-8-yl)-5-(piperazin-1-yl)pyrazine-2-carboxamide] was tested, and the “GIPRCNT: % Growth inhibition” value (Breast Cancer, BT-549) was 82.22%, the “GIPRCNT: % Growth inhibition” value (Breast Cancer, HS 578T) was 71.77% and the “GIPRCNT: % Growth inhibition” value (Breast Cancer, MCF7) was 75.22%. For the same compound, the “GIPRCNT: % Growth inhibition” value (Breast Cancer, MDA-MB-231/ATCC) was 10.16%, the “GIPRCNT: % Growth inhibition” value (Breast Cancer, MDA-MB-468) was −5.124% and the “GIPRCNT: % Growth inhibition” value (Breast Cancer, T-47D) was 18.05%. For the same compound, the “GIPRCNT: % Growth inhibition” value (CNS Cancer, SF-268) was 77.45%, the “GIPRCNT: % Growth inhibition” value (CNS Cancer, SF-295) was 89.3% and the “GIPRCNT: % Growth inhibition” value (CNS Cancer, SF-539) was 85.5%. The “GIPRCNT: % Growth inhibition” value (CNS Cancer, SNB-19) was 87.74%, the “GIPRCNT: % Growth inhibition” value (CNS Cancer, SNB-75) was 82.71% and the “GIPRCNT: % Growth inhibition” value (CNS Cancer, U251) was 63.6%. For the same compound, the “GIPRCNT: % Growth inhibition” value (Colon Cancer, COLO 205) was 13.9%, the “GIPRCNT: % Growth inhibition” value (Colon Cancer, HCC-2998) was 85.58% and the “GIPRCNT: % Growth inhibition” value (Colon Cancer, HCT-15) was 40.52%. For the same compound, the “GIPRCNT: % Growth inhibition” value (Colon Cancer, HCT-116) was 11%, the “GIPRCNT: % Growth inhibition” value (Colon Cancer, HT29) was 36.78% and the “GIPRCNT: % Growth inhibition” value (Colon Cancer, KM12) was 81.24%. The “GIPRCNT: % Growth inhibition” value (Colon Cancer, SW-620) was 40.94%, the “GIPRCNT: % Growth inhibition” value (Leukemia, CCRF-CEM) was 26.31% and the “GIPRCNT: % Growth inhibition” value (Leukemia, HL-60(TB)) was 77.07%. The “GIPRCNT: % Growth inhibition” value (Leukemia, K-562) was 19.84%, the “GIPRCNT: % Growth inhibition” value (Leukemia, MOLT-4) was 24.48% and the “GIPRCNT: % Growth inhibition” value (Leukemia, RPMI-8226) was 93.13%. For the same compound, the “GIPRCNT: % Growth inhibition” value (Leukemia, SR) was 29.46%, the “GIPRCNT: % Growth inhibition” value (Melanoma, LOX IMVI) was 65.76% and the “GIPRCNT: % Growth inhibition” value (Melanoma, M14) was 86.06%. The “GIPRCNT: % Growth inhibition” value (Melanoma, MALME-3M) was 59.5595%, the “GIPRCNT: % Growth inhibition” value (Melanoma, MDA-MB-435) was 77.28% and the “GIPRCNT: % Growth inhibition” value (Melanoma, SK-MEL-2) was 104.1313%. For the same compound, the “GIPRCNT: % Growth inhibition” value (Melanoma, SK-MEL-5) was 97.38%, the “GIPRCNT: % Growth inhibition” value (Melanoma, UACC-62) was 88.004% and the “GIPRCNT: % Growth inhibition” value (Melanoma, UACC-257) was 91.12%. For the same compound, the “GIPRCNT: % Growth inhibition” value [1] was 88.1%, the “GIPRCNT: % Growth inhibition” value [2] was 82.71% and the “GIPRCNT: % Growth inhibition” value [3] was 85.24%. The “GIPRCNT: % Growth inhibition” value [4] was 49.09%, the “GIPRCNT: % Growth inhibition” value [5] was 83.43% and the “GIPRCNT: % Growth inhibition” value [6] was 100.3613%. For the same compound, the “GIPRCNT: % Growth inhibition” value [7] was 69.29%, the “GIPRCNT: % Growth inhibition” value [8] was 80.62% and the “GIPRCNT: % Growth inhibition” value [9] was 54.48%. For the same compound, the “GIPRCNT: % Growth inhibition” value (Ovarian Cancer, IGROV1) was 100.6006%, the “GIPRCNT: % Growth inhibition” value (Ovarian Cancer, NCI/ADR-RES) was 72.41% and the “GIPRCNT: % Growth inhibition” value (Ovarian Cancer, OVCAR-3) was 43.52%. For the same compound, the “GIPRCNT: % Growth inhibition” value (Ovarian Cancer, OVCAR-4) was 6.04%, the “GIPRCNT: % Growth inhibition” value (Ovarian Cancer, OVCAR-5) was 11.16% and the “GIPRCNT: % Growth inhibition” value (Ovarian Cancer, OVCAR-8) was 83.3637%. For the same compound, the “GIPRCNT: % Growth inhibition” value (Ovarian Cancer, SK-OV-3) was 87.6273%, the “GIPRCNT: % Growth inhibition” value (Prostate Cancer, DU-145) was 63.01% and the “GIPRCNT: % Growth inhibition” value (Prostate Cancer, PC-3) was 29.0295%. The “GIPRCNT: % Growth inhibition” value (Renal Cancer, 786-0) was 100.1067%, the “GIPRCNT: % Growth inhibition” value (Renal Cancer, A498) was 89.1% and the “GIPRCNT: % Growth inhibition” value (Renal Cancer, ACHN) was 88.67%. For the same compound, the “GIPRCNT: % Growth inhibition” value (Renal Cancer, CAKI-1) was 28.3672%, the “GIPRCNT: % Growth inhibition” value (Renal Cancer, RXF 393) was 52.45% and the “GIPRCNT: % Growth inhibition” value (Renal Cancer, SN12C) was 54.07%. The “GIPRCNT: % Growth inhibition” value (Renal Cancer, TK-10) was 74.98% and the “GIPRCNT: % Growth inhibition” value (Renal Cancer, UO-31) was 66.57%.
`CCN(CC)CCCC(C)Nc1cnc(C(=O)Nc2ccc(Cl)c3cccnc23)cn1` (stereo not shown) [J9, N-(5-chloroquinolin-8-yl)-5-((5-(diethylamino)pentan-2-yl)amino)pyrazine-2-carboxamide] was tested, and the “GIPRCNT: % Growth inhibition” value (Breast Cancer, BT-549) was 80.08%, the “GIPRCNT: % Growth inhibition” value (Breast Cancer, HS 578T) was 51.41% and the “GIPRCNT: % Growth inhibition” value (Breast Cancer, MCF7) was −2.145%. The “GIPRCNT: % Growth inhibition” value (Breast Cancer, MDA-MB-231/ATCC) was −29.6765%, the “GIPRCNT: % Growth inhibition” value (Breast Cancer, MDA-MB-468) was −28.0145% and the “GIPRCNT: % Growth inhibition” value (Breast Cancer, T-47D) was −49.3289%. The “GIPRCNT: % Growth inhibition” value (CNS Cancer, SF-268) was 35.85%, the “GIPRCNT: % Growth inhibition” value (CNS Cancer, SF-295) was 63.03% and the “GIPRCNT: % Growth inhibition” value (CNS Cancer, SF-539) was −73.563%. For the same compound, the “GIPRCNT: % Growth inhibition” value (CNS Cancer, SNB-19) was 49.65%, the “GIPRCNT: % Growth inhibition” value (CNS Cancer, SNB-75) was 41.7% and the “GIPRCNT: % Growth inhibition” value (CNS Cancer, U251) was −35.3044%. For the same compound, the “GIPRCNT: % Growth inhibition” value (Colon Cancer, COLO 205) was −66.6925%, the “GIPRCNT: % Growth inhibition” value (Colon Cancer, HCC-2998) was 32.59% and the “GIPRCNT: % Growth inhibition” value (Colon Cancer, HCT-15) was 3.732%. The “GIPRCNT: % Growth inhibition” value (Colon Cancer, HCT-116) was −52.4351%, the “GIPRCNT: % Growth inhibition” value (Colon Cancer, HT29) was −49.3651% and the “GIPRCNT: % Growth inhibition” value (Colon Cancer, KM12) was 30.3%. The “GIPRCNT: % Growth inhibition” value (Colon Cancer, SW-620) was 0.6189%, the “GIPRCNT: % Growth inhibition” value (Leukemia, CCRF-CEM) was 5.288% and the “GIPRCNT: % Growth inhibition” value (Leukemia, HL-60(TB)) was −63.3005%. The “GIPRCNT: % Growth inhibition” value (Leukemia, K-562) was −45.7589%, the “GIPRCNT: % Growth inhibition” value (Leukemia, MOLT-4) was 2.901% and the “GIPRCNT: % Growth inhibition” value (Leukemia, RPMI-8226) was 2.196%. The “GIPRCNT: % Growth inhibition” value (Leukemia, SR) was 1.416%, the “GIPRCNT: % Growth inhibition” value (Melanoma, LOX IMVI) was −83.8894% and the “GIPRCNT: % Growth inhibition” value (Melanoma, M14) was −73.1499%. For the same compound, the “GIPRCNT: % Growth inhibition” value (Melanoma, MALME-3M) was −71.7698%, the “GIPRCNT: % Growth inhibition” value (Melanoma, MDA-MB-435) was −57.8225% and the “GIPRCNT: % Growth inhibition” value (Melanoma, SK-MEL-2) was 57.84%. The “GIPRCNT: % Growth inhibition” value (Melanoma, SK-MEL-5) was −3.699%, the “GIPRCNT: % Growth inhibition” value (Melanoma, UACC-62) was −52.4398% and the “GIPRCNT: % Growth inhibition” value (Melanoma, UACC-257) was −32.9601%. For the same compound, the “GIPRCNT: % Growth inhibition” value [1] was 23.43%, the “GIPRCNT: % Growth inhibition” value [2] was 66.07% and the “GIPRCNT: % Growth inhibition” value [3] was 43.04%. For the same compound, the “GIPRCNT: % Growth inhibition” value [4] was 38.78%, the “GIPRCNT: % Growth inhibition” value [5] was 80.43% and the “GIPRCNT: % Growth inhibition” value [6] was 39.13%. The “GIPRCNT: % Growth inhibition” value [7] was 35.3%, the “GIPRCNT: % Growth inhibition” value [8] was 3.469% and the “GIPRCNT: % Growth inhibition” value [9] was 4.415%. The “GIPRCNT: % Growth inhibition” value (Ovarian Cancer, IGROV1) was 44.22%, the “GIPRCNT: % Growth inhibition” value (Ovarian Cancer, NCI/ADR-RES) was 52.19% and the “GIPRCNT: % Growth inhibition” value (Ovarian Cancer, OVCAR-3) was −23.663%. For the same compound, the “GIPRCNT: % Growth inhibition” value (Ovarian Cancer, OVCAR-4) was 51.32%, the “GIPRCNT: % Growth inhibition” value (Ovarian Cancer, OVCAR-5) was 53.28% and the “GIPRCNT: % Growth inhibition” value (Ovarian Cancer, OVCAR-8) was 27.34%. For the same compound, the “GIPRCNT: % Growth inhibition” value (Ovarian Cancer, SK-OV-3) was 79.51%, the “GIPRCNT: % Growth inhibition” value (Prostate Cancer, DU-145) was 53.1% and the “GIPRCNT: % Growth inhibition” value (Prostate Cancer, PC-3) was 39.38%. For the same compound, the “GIPRCNT: % Growth inhibition” value (Renal Cancer, 786-0) was −44.1831%, the “GIPRCNT: % Growth inhibition” value (Renal Cancer, A498) was 53.99% and the “GIPRCNT: % Growth inhibition” value (Renal Cancer, ACHN) was −54.7701%. The “GIPRCNT: % Growth inhibition” value (Renal Cancer, CAKI-1) was 23.14%, the “GIPRCNT: % Growth inhibition” value (Renal Cancer, RXF 393) was 18.75% and the “GIPRCNT: % Growth inhibition” value (Renal Cancer, SN12C) was 31.6819%. For the same compound, the “GIPRCNT: % Growth inhibition” value (Renal Cancer, TK-10) was 57.61% and the “GIPRCNT: % Growth inhibition” value (Renal Cancer, UO-31) was 23.83%.
